Publication PMC6210068 (ACS Omega, 2018)

Key:
rat kidney TSPO = rat kidney TSPO (Rattus norvegicus, UniProt P16257); assay: Radioligand binding at TSPO; conditions: for Ki: TSPO, rat TSPO, [3H]PK11195; for TSPO, inhibition of radioligand binding at 10 μM (class): Table 2
hDAT = hDAT (Homo sapiens, UniProt Q01959); assay: Radioligand binding at DAT; conditions: 10 μM; [3H]WIN35428; negative = enhanced radioligand binding
[1] = molecular target: human α2C adrenergic receptor (Homo sapiens, UniProt P18825); assay: PDSP off-target binding, α2C adrenergic
Chain of human α2C adrenergic receptor (P18825 whole entry): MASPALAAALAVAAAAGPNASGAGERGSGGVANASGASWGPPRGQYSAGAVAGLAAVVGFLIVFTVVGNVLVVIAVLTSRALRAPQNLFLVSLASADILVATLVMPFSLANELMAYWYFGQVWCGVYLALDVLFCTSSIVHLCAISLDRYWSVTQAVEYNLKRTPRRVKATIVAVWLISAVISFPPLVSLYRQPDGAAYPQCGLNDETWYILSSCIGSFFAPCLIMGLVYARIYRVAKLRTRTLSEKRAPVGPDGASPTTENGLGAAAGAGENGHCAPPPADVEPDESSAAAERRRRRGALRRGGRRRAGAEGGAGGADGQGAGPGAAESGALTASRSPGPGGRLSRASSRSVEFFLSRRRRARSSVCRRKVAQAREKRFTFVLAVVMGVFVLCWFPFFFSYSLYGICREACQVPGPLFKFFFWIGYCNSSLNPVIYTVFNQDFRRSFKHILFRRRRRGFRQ

5HT2B serotonin receptor = 5HT2B serotonin receptor (Homo sapiens, UniProt P41595); assay: PDSP off-target binding, 5HT2B
Chain of 5HT2B serotonin receptor (P41595 whole entry): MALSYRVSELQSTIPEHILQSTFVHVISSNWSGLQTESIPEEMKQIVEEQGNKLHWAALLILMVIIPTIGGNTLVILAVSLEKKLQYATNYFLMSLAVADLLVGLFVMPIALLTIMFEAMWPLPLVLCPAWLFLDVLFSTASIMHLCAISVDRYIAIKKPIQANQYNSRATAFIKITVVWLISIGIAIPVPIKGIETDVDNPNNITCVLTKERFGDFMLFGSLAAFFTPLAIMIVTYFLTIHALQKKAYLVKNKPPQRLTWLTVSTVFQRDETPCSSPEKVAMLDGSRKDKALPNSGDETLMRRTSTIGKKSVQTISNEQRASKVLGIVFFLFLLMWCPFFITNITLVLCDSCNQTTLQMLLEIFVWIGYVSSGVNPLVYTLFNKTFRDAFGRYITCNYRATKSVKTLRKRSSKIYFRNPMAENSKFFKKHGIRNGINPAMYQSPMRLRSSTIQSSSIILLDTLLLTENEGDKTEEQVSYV

rat σ2 receptor = molecular target: T1, rat σ2 receptor (Rattus norvegicus, UniProt Q5U3Y7); assay: PDSP binding, σ2 receptor
T1 sequence (Q5U3Y7 1-176): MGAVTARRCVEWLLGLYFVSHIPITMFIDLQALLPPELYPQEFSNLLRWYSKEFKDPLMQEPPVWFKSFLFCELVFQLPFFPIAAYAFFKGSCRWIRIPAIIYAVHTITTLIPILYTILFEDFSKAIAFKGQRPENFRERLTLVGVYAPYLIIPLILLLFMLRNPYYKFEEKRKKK

β3 adrenergic receptor = β3 adrenergic receptor (Homo sapiens, UniProt P13945); assay: PDSP off-target binding, β3 adrenergic
DOR [2] = molecular target: T2, DOR (Homo sapiens, UniProt P41143); assay: Radioligand binding at DOR
T2 sequence (P41143 whole entry): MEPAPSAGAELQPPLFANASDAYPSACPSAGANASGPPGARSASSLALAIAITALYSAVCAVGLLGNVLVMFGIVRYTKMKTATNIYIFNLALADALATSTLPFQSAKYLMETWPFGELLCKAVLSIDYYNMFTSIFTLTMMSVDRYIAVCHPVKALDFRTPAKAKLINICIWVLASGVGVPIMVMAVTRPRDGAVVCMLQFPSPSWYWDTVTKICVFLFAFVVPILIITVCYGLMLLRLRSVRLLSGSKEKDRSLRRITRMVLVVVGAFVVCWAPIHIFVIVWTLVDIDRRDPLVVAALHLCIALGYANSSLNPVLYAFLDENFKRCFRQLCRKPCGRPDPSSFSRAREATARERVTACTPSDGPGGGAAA

MOR [3] = molecular target: T3, MOR (Homo sapiens, UniProt P35372); assay: biochemical; type: binding; conditions: for MOR, inhibition of radioligand binding at 10 μM (class): Table 2
T3 sequence (P35372 whole entry): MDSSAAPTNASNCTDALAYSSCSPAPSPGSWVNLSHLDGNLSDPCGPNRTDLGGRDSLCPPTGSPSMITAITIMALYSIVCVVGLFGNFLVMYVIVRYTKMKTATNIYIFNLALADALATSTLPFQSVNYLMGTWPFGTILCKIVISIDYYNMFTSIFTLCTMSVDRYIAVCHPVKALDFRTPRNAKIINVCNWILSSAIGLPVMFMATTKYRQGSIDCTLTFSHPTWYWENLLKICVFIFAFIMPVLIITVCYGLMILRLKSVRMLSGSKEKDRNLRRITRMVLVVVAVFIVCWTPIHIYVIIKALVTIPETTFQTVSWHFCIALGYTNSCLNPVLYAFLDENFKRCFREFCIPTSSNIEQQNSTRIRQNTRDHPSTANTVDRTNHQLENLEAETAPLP

KOR [4] = molecular target: T4, KOR (Homo sapiens, UniProt P41145); assay: biochemical; type: binding; conditions: for Ki: KOR, [3H]U69593, mean ± SEM, N = 2–4
T4 sequence (P41145 whole entry): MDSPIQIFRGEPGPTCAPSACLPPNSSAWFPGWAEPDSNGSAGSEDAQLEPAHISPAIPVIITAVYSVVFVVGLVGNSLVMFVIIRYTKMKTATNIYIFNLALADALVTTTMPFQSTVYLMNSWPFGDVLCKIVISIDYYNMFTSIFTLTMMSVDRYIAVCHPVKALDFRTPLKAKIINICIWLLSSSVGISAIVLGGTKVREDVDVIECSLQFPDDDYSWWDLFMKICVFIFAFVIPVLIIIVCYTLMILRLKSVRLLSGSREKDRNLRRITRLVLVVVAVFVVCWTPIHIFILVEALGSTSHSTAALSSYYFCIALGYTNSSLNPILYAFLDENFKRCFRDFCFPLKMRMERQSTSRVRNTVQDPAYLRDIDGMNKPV

mA3AR = molecular target: T5, mA3AR (Mus musculus, UniProt Q61618); conditions: ref Tosh et al. 2,3,6,34,35,37; cited from earlier work
T5 sequence (Q61618 1-319): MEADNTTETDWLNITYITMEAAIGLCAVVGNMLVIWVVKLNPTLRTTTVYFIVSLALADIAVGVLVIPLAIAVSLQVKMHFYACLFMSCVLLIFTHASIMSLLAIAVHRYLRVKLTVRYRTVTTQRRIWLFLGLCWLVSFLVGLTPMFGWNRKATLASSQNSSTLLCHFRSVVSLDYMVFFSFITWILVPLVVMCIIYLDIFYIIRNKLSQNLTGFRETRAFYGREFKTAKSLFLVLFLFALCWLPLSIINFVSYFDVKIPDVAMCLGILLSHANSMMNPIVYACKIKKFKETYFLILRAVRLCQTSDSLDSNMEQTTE

5HT2C serotonin receptor = molecular target: T6, 5HT2C serotonin receptor (Homo sapiens, UniProt P28335); assay: PDSP off-target binding, 5HT2C
T6 sequence (P28335 33-458): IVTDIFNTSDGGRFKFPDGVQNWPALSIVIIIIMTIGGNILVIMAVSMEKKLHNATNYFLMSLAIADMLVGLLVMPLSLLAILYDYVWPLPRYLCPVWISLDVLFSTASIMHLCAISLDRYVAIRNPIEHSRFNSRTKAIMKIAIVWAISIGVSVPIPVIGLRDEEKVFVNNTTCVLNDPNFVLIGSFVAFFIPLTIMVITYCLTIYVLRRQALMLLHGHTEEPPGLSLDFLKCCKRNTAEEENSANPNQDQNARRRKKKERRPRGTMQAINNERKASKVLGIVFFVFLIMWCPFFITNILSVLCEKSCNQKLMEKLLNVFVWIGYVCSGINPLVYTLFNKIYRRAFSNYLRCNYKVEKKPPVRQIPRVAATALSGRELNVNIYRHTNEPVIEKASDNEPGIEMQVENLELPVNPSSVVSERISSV

DOR [5] = molecular target: T2, DOR; assay: β-arrestin-recruitment TANGO assay at DOR; type: cell-based; conditions: 10 μM
mA1AR = molecular target: T7, mA1AR (Mus musculus, UniProt Q60612); assay: mA1AR binding; conditions: read-out: mA1AR binding, % inhibition at 10 μM
T7 sequence (Q60612 1-326): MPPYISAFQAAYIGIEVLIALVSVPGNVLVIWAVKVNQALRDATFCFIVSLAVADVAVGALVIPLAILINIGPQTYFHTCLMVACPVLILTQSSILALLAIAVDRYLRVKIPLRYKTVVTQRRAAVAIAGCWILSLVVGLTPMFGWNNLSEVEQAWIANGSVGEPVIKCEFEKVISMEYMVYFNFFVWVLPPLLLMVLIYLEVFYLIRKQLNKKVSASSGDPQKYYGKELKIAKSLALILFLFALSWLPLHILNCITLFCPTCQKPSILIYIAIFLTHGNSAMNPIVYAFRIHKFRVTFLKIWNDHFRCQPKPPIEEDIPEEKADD

MOR [6] = molecular target: T3, MOR; assay: β-arrestin-recruitment TANGO assay at MOR; type: cell-based; conditions: 10 μM
mA2AAR = mA2AAR (Mus musculus, UniProt Q60613); assay: mA2AAR binding; conditions: read-out: mA2AAR binding, % inhibition at 10 μM
Chain of mA2AAR (Q60613 whole entry): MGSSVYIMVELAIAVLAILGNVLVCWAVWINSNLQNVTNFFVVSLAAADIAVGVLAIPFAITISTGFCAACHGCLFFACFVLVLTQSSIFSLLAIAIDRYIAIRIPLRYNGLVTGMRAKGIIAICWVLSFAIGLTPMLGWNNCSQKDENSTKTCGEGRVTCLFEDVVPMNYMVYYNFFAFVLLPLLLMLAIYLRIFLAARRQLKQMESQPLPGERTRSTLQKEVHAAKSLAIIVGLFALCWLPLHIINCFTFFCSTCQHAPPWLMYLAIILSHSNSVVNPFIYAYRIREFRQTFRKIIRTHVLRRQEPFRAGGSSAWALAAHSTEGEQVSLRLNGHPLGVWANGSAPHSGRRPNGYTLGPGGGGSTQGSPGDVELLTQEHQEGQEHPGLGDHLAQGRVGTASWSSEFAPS

KOR [7] = molecular target: T4, KOR; assay: β-arrestin-recruitment TANGO assay at KOR; type: cell-based; conditions: 10 μM; vs naloxone 121 = 100% inhibition; agonist 109 (3 nM)
muscarinic M5 receptor = muscarinic M5 receptor (Homo sapiens, UniProt P08912); assay: PDSP off-target binding, muscarinic M5
hA3AR = molecular target: T8, hA3AR (Homo sapiens, UniProt P0DMS8); assay: A3AR binding
T8 sequence (P0DMS8 1-318): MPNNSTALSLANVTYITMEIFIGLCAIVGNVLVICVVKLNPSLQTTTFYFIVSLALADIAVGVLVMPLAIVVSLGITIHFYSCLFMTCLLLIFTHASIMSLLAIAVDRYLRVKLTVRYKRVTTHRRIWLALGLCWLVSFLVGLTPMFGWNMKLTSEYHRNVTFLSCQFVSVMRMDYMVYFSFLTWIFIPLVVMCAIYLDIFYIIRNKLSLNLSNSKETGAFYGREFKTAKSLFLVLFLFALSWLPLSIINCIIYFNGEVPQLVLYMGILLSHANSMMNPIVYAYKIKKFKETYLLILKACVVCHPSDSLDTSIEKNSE

5HT2A serotonin receptor = 5HT2A serotonin receptor (Homo sapiens, UniProt P28223); assay: PDSP off-target binding, 5HT2A
Chain of 5HT2A serotonin receptor (P28223 whole entry): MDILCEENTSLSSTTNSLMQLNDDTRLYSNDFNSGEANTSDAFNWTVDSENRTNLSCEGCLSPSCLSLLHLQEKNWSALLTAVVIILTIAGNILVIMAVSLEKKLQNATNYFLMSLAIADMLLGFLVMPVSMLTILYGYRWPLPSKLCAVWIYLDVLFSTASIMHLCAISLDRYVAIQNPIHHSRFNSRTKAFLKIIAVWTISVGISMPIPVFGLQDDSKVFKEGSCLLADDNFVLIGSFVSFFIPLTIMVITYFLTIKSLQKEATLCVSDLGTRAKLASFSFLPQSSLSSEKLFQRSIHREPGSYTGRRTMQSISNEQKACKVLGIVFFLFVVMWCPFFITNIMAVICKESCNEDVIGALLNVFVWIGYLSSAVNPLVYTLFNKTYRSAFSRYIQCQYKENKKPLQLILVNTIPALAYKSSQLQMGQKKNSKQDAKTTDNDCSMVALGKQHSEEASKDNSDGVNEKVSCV

KOR [8] = molecular target: T4, KOR; type: cell-based
hA1AR = molecular target: T9, hA1AR (Homo sapiens, UniProt P30542); assay: hA1AR binding
T9 sequence (P30542 1-326): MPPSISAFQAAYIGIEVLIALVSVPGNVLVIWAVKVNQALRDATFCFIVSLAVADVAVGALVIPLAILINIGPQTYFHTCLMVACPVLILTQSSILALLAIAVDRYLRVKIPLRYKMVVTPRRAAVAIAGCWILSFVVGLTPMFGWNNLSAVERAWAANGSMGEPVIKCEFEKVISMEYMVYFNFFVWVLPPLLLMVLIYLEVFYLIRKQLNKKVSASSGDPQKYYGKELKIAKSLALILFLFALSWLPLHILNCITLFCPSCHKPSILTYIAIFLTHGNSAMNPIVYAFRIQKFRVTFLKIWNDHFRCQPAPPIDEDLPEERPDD

hA2AAR = hA2AAR (Homo sapiens, UniProt P29274); assay: hA2AAR binding; conditions: read-out: binding inhibition at hA2AAR (% at 10 μM)
Chain of hA2AAR (P29274 whole entry): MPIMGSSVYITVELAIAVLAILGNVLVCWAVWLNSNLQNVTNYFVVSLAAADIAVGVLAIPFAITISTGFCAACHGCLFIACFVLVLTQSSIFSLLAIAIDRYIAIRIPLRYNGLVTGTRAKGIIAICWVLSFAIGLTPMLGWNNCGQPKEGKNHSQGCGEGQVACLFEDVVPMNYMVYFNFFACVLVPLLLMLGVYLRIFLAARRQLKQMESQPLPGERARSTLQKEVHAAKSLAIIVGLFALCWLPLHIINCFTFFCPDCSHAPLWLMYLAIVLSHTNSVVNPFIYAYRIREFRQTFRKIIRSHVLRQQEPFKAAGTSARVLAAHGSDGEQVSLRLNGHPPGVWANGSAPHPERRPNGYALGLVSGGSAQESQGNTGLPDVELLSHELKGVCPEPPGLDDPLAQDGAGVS

KOR [9] = molecular target: T4, KOR; assay: cell-based; type: cell-based
hSERT = hSERT (Homo sapiens, UniProt P31645); assay: biochemical; type: binding
Chain of hSERT (P31645 whole entry): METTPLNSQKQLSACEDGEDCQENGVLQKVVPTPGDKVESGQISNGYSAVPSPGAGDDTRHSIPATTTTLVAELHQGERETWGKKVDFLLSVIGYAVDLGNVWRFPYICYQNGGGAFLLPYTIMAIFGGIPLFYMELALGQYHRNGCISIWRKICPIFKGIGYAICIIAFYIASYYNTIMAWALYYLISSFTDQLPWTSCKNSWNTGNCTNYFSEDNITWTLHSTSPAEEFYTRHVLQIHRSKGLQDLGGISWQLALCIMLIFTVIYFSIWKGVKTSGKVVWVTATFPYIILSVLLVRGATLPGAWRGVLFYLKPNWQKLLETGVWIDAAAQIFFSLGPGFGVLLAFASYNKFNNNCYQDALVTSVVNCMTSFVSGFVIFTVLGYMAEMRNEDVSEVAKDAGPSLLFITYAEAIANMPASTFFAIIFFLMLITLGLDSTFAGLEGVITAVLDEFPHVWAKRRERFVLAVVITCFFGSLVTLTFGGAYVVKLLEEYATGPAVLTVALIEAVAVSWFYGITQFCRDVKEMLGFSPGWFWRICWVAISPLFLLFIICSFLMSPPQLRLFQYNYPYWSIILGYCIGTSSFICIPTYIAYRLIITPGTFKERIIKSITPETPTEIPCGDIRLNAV

Chain of hDAT (Q01959 whole entry): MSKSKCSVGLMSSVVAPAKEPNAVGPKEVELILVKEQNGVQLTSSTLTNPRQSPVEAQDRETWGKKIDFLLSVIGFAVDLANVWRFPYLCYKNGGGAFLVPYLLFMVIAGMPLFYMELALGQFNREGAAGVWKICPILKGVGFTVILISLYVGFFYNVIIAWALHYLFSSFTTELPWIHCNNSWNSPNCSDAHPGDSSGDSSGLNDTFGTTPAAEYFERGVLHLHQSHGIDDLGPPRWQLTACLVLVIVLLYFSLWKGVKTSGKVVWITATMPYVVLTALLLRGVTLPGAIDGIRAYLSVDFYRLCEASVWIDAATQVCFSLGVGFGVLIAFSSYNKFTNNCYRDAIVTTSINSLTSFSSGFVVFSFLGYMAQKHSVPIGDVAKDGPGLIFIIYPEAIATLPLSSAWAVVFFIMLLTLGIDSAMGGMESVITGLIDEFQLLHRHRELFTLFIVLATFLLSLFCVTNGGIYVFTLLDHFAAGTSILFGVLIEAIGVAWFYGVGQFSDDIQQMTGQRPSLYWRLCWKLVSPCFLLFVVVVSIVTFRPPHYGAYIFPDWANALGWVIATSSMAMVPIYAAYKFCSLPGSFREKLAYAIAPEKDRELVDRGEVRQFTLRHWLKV
Chain of rat kidney TSPO (P16257 whole entry): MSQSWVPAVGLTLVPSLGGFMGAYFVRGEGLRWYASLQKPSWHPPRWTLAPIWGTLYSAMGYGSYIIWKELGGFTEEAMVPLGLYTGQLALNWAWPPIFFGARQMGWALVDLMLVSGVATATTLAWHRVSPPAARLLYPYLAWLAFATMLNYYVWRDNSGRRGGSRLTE

Structure (SMILES) | Ki (rat kidney TSPO) | DAT, inhibition, % of control at 10 μM (hDAT) | Ki (5HT2B serotonin receptor) | Ki (KOR [4]) | Ki (5HT2C serotonin receptor) | Ki (hA3AR) | Ki (MOR [3]) | Ki (DOR [2]) | MOR, inhibition of radioligand binding at 10 μM (class) (MOR [3]) | A3AR binding, % at 10 μM (m) (mA3AR) | DOR, inhibition of radioligand binding at 10 μM (class) (DOR [2]; Table 2) | further results
CNc1nc(C#Cc2ccc(Cl)s2)nc2c1ncn2[C@H]1[C@H](O)[C@H](O)[C@]2(C(=O)OC)C[C@H]12 [compound 22] | – | –352% | – | 3130 ± 300 nM | – | – | – | – | ^c (30–50% inhibition of radioligand binding at 10 μM) | 36 ± 1% | ^d (<30% inhibition of radioligand binding at 10 μM) | TSPO, inhibition of radioligand binding at 10 μM (class) (rat kidney TSPO): ^c (30–50% inhibition of radioligand binding at 10 μM)
CNc1nc(C#Cc2ccc(Br)s2)nc2c1ncn2[C@H]1[C@H](O)[C@H](O)[C@]2(C(=O)OC)C[C@H]12 [compound 23] | 8120 ± 670 nM | –370% | – | 2090 ± 330 nM | 2330 nM | – | – | – | ^c (30–50% inhibition of radioligand binding at 10 μM) | 57 ± 1% | ^d (<30% inhibition of radioligand binding at 10 μM) | –
CCOC(=O)[C@@]12C[C@@H]1[C@@H](n1cnc3c(NC)nc(C#Cc4ccc(Cl)s4)cc31)[C@H](O)[C@@H]2O [compound 27] | 3390 ± 640 nM | –354% | 1780 ± 280 nM | – | 400 nM | 47.3 ± 18.9 nM | – | – | ^d (<30% inhibition of radioligand binding at 10 μM) | – | ^d (<30% inhibition of radioligand binding at 10 μM) | Ki (muscarinic M5 receptor): 3850 nM; KOR binding inhibition at 10 μM (KOR [4]; 10 μM): < 10%; KOR, inhibition of radioligand binding at 10 μM (class) (KOR [4]; Table 2, 10 μM): ^d (<30% inhibition of radioligand binding at 10 μM); Ki (5HT2A serotonin receptor): 1300 ± 290 nM
CCOC(=O)[C@@]12C[C@@H]1[C@@H](n1ccc3c(NC)nc(I)nc31)[C@@H]1OC(C)(C)O[C@@H]12 [compound 73, Ethyl(3aR,3bS,4aS,5R,5aS)-5-(2-iodo-4-(methylamino)-7H-pyrrolo[2,3-d]pyrimidin-7-yl)-2,2-dimethyltetrahydrocyclopropa[3,4]cyclopenta[1,2-d][1,3]dioxole-3b(3aH)-carboxylate] | > 10000 nM | –39% | – | 276 ± 65 nM | – | 4050 ± 740 nM | 7600 nM | > 10000 nM | – | – | – | Ki (hA1AR): 1110 nM; Ki (hSERT): 6580 nM
CCOC(=O)[C@@]12C[C@@H]1[C@@H](n1ccc3c(NC)nc(C#Cc4ccc(Cl)s4)nc31)[C@@H]1OC(C)(C)O[C@@H]12 [compound 77, Ethyl(3aR,3bS,4aS,5R,5aS)-5-(2-((5-chlorothiophen-2-yl)ethynyl)-4-(methylamino)-7H-pyrrolo[2,3-d]pyrimidin-7-yl)-2,2-dimethyltetrahydrocyclopropa[3,4]cyclopenta[1,2-d][1,3]dioxole-3b(3aH)-carboxylate] | – | –20% | 4180 nM | 52 ± 23 nM | 16 nM | 1650 ± 330 nM | 1530 ± 560 nM | 1990 ± 1020 nM | – | – | – | TSPO, inhibition of radioligand binding at 10 μM (class) (rat kidney TSPO): ^d (<30% inhibition of radioligand binding at 10 μM); selectivity at 5HT2CR compared with 5HT2BR (5HT2C serotonin receptor): 260 fold

More lines, in order of falling Ki (rat kidney TSPO), values ahead:

Ki (rat kidney TSPO) | DAT, inhibition, % of control at 10 μM (hDAT) | Ki (5HT2B serotonin receptor) | Ki (KOR [4]) | Ki (5HT2C serotonin receptor) | Ki (hA3AR) | Ki (MOR [3]) | Ki (DOR [2]) | Structure (SMILES) | MOR, inhibition of radioligand binding at 10 μM (class) (MOR [3]) | A3AR binding, % at 10 μM (m) (mA3AR) | DOR, inhibition of radioligand binding at 10 μM (class) (DOR [2]; Table 2) | further results
2650 ± 290 nM | 7% | 2960 ± 600 nM | – | – | – | – | – | CNC(=O)[C@@]12C[C@@H]1[C@@H](n1cnc3c(NCc4cccc(Cl)c4)nc(C#Cc4ccccc4)nc31)[C@H](O)[C@@H]2O [compound 6] | – | – | – | Ki [1]: 6300 nM; Ki (rat σ2 receptor): 1540 nM; Ki (β3 adrenergic receptor): 2600 nM; DOR, inhibition of radioligand binding at 10 μM (class) (DOR [2]; Table 1): ^e (30–50% inhibition of radioligand binding at 10 μM)
1290 ± 70 nM | – | – | 396 ± 29 nM | – | – | – | – | CCOC(=O)[C@@]12C[C@@H]1[C@@H](n1cnc3c(NC)nc(C#Cc4ccc(Cl)s4)nc31)[C@H](O)[C@@H]2O [compound 24] | ^d (<30% inhibition of radioligand binding at 10 μM) | 45 ± 5% | ^c (30–50% inhibition of radioligand binding at 10 μM) | DOR Antag (%) (DOR [5]; vs naloxone 121 = 100% inhibition): 35.3%; DOR Ag (%) (DOR [5]; vs standard agonist = 100%): 0.7%; inhibition at 10 µM (mA1AR): 43%; MOR Antag (%) (MOR [6]; vs naloxone 121 = 100% inhibition, agonist 99 (300 nM)): –13.4%; MOR Ag (%) (MOR [6]; vs standard agonist = 100%): 0.3%; inhibition at 10 µM (mA2AAR): 10%; KOR Antag (%) (KOR [7]): 58.2%
480 ± 200 nM | 21% | – | 207 ± 21 nM | – | 483 ± 62 nM | 1770 ± 540 nM | 627 ± 178 nM | CCOC(=O)[C@@]12C[C@@H]1[C@@H](n1ccc3c(NCCc4ccccc4)nc(C#Cc4ccccc4)nc31)[C@H](O)[C@@H]2O [compound 43, Ethyl(1S,2R,3S,4R,5S)-2,3-dihydroxy-4-(4-(phenethylamino)-2-(phenylethynyl)-7H-pyrrolo[2,3-d]pyrimidin-7-yl)bicyclo[3.1.0]hexane-1-carboxylate] | – | – | – | Ki [1]: 510 nM; inhibition of agonist 98 in βarrestin2 assay (KOR [8]; 1 μM 98): did not inhibit; βarrestin2 recruitment, agonist effect relative to full agonist 98 (KOR [8]; agonist mode, highest concentrations): 30 ± 4.6%; inhibition at 10 µM (hA1AR; read-out: binding inhibition at hA1AR (% at 10 μM)): 26%; inhibition at 10 µM (hA2AAR): < 10%; inhibition of agonist 98 in cAMP assay (KOR [9]; 100 nM 98): did not inhibit; inhibition at 30 µM (KOR [9]; CHO, read-out: inhibition of cAMP accumulation, % inhibition at 30 μM): 23%
